Experimental data as given in PubChem BioAssay AID1159560 (GlaxoSmithKline (GSK), 2015).
The source made the active and inactive calls. The rule behind the calls is not given here.

test system: Leishmania donovani growth inhibition; test: antileishmanial activity against L. donovani parasites (AID 1159560);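 note: parasites exposed to compound for 72 h before the viability read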

| SMILES | IC50 |
| --- | --- |
| COc1ccc(C2CC(c3ccccc3Cl)=NN2C(=O)CNC(=O)C2CCC2)cc1 (stereo not given) | > 50 µM (inactive) |
| Cc1nc2c(-c3cccs3)c(C)nn2c(NCCO)c1C | > 50 µM (inactive) |
| CNS(=O)(=O)c1ccccc1Nc1nc(Nc2ccnn2C)ncc1Cl | 0.2 µM |
| O=C(Nc1nc(-c2ccc(F)cc2)cs1)c1ccc([N+](=O)[O-])s1 | 0.63 µM |
| COc1cccc(NS(=O)(=O)c2ccc3[nH]cc(C(=O)NCCC(C)C)c(=O)c3c2)c1 | > 50 µM (inactive) |
| O=C(NNC(=O)c1ccccn1)c1ccc(-c2ccccc2)cc1 | 3.2 µM |
| FC(F)(F)c1cc(C2CCCN(Cc3c[nH]c4ccccc34)C2)nc2ncnn12 (stereo not given) | > 50 µM (inactive) |
| Oc1c(-c2n[nH]c(CCc3ccccc3)n2)ncc2cccnc12 | 0.32 µM |
| O=c1[nH]cnc2c([C@@H]3O[C@H](CO)[C@@H](O)[C@H]3O)[nH]nc12 | 0.4 µM |
| COc1ccc(S(=O)(=O)Nc2ccc(CN3CCN(C(=O)c4cccc(C#N)c4)CC3)cc2)cc1 | 32 µM |
| Nc1nonc1-c1nc2cncc(C(=O)N3CC[C@H](N)C3)c2n1CC1CC1 | > 50 µM (inactive) |
| O=S(=O)(NCC(c1cccnc1)N1CCN(c2ccc(F)cc2)CC1)c1cccs1 (stereo not given) | > 50 µM (inactive) |
| Cc1c(CNC(=O)c2ccc(Cn3cc(Cl)c([N+](=O)[O-])n3)cc2)cnn1C | > 50 µM (inactive) |
| COc1cc(Cl)c(C)cc1NC(=O)c1ccc([N+](=O)[O-])s1 | 7.9 µM |
| NS(=O)(=O)c1ccc(Nc2ncc3cccc(OC4CCNCC4)c3n2)cc1 | 40 µM |
| Cc1ccccc1NS(=O)(=O)c1ccc2[nH]cc(C(=O)NC3CCCCC3)c(=O)c2c1 | > 50 µM (inactive) |
| CCC1Oc2cc(S(=O)(=O)N(C)CC(=O)N3CCc4ccccc4C3)c(C)cc2NC1=O (stereo not given) | > 50 µM (inactive) |
| Cc1nc2c(-c3ncn[nH]3)cc(NC(=O)Cc3ccccc3)cn2c1C | 0.79 µM |
| O=C1OCc2ccc(Nc3nccc(-c4cnn5ncccc45)n3)cc21 | 0.063 µM |
| CC(Cn1ccnc1)NC(=O)C1CC1c1cccc(Cl)c1Cl (stereo not given) | 16 µM |

| SMILES | IC50 |
| --- | --- |
| CCc1cccc(CC)c1-n1c(SCC(=O)N2CC(=O)Nc3ccccc32)nnc1-c1cccnc1 | 40 µM |
| CC1CCCN(S(=O)(=O)c2ccc(C(=O)Nc3nc(-c4ccccn4)cs3)cc2)C1 (stereo not given) | 1.6 µM |
| Cc1[nH]n2c(=O)c3c(nc2c1-c1ccc(F)cc1)CCCC3 | 1.3 µM |
| CC1=NN(C(=O)CCn2cnc([N+](=O)[O-])n2)C(O)(C(F)(F)F)C1 (stereo not given) | > 50 µM (inactive) |
| O=C(Nc1cccc(S(=O)(=O)Nc2ccc(Br)cc2)c1)c1ccc([N+](=O)[O-])s1 | 0.79 µM |
| COc1cccc(-c2cc(C(F)(F)F)nc(-n3ccc([N+](=O)[O-])n3)n2)c1 | > 50 µM (inactive) |
| COc1ccc(OC)c(S(=O)(=O)N(Cc2c(F)cccc2F)[C@@H]2CCN(C#N)C2)c1 | 16 µM |
| O=C(c1cc2cc(Cl)ccc2[nH]1)N1CCCCC1c1cccnc1 (stereo not given) | 50 µM |
| COCCn1cnc2cc(NC(=O)C3CCCCC3)cc(C(=O)N3CCc4sccc4C3)c21 | > 50 µM (inactive) |
| Clc1ccc(Sc2cnccc2N2CCOCC2)cc1 | 7.9 µM |
| CCN(CC)c1nc(Nc2ccncc2)nc2ccccc12 | 0.79 µM |
| c1ccc(CNc2cccc3ccncc23)cc1 | 10 µM |
| Cc1cccnc1CN1CCN(CCCOc2ccc(-c3ccc(C(N)=O)cc3)cc2)CC1 | > 50 µM (inactive) |
| CC(C)COC(=O)Nc1ccc(N2CCC(CNS(=O)(=O)c3ccccc3)CC2)c(F)c1 | 4 µM |
| O=C(CC1(O)C(=O)N(Cc2ccccc2)c2ccc(Br)cc21)c1cccnc1 (stereo not given) | > 50 µM (inactive) |
| O=C(Nc1nc(-c2ccc(S(=O)(=O)N3CCOCC3)cc2)cs1)c1ccc([N+](=O)[O-])cc1 | > 50 µM (inactive) |
| O=C(c1cccc(Nc2ncc(-c3ccc4c(c3)OCO4)cn2)c1)N1CCSC1 | 1.3 µM |
| CCS(=O)(=O)Nc1ccc(C2=NN(C(=O)c3cccs3)C(c3ccccc3OC)C2)cc1 (stereo not given) | 1.3 µM |
| COc1ccc(C2CC(c3ccccc3Cl)=NN2C(=O)CNC(=O)C2CCCC2)cc1 (stereo not given) | > 50 µM (inactive) |
| c1cc(-c2ncc(-c3ccn[nH]3)s2)ccn1 | > 50 µM (inactive) |
